Source: the NIST ThermoML archive (doi:10.1016/j.tca.2011.02.002)
Numbers after ± are expanded uncertainties.

Columns and labels:
[1] = xn = mol fraction of the nth substance listed; details: 101 kPa, Liquid, x1 = 1; for mass density: Vibrating tube method
[2] = 101 kPa, Liquid; for mass density: Vibrating tube method

| speed of sound ([2]; 298.15 K) | mass density ([2]; 298.15 K) | speed of sound ([2]; 303.15 K) | mass density ([2]; 303.15 K) | speed of sound ([2]; 308.15 K) | mass density ([2]; 308.15 K) | Structure (SMILES) | mass density ([1]; 298.15 K) | speed of sound ([1]; 298.15 K) | mass density ([1]; 303.15 K) | speed of sound ([1]; 303.15 K) | mass density ([1]; 308.15 K) | speed of sound ([1]; 308.15 K) |
| --- | --- | --- | --- | --- | --- | --- | --- | --- | --- | --- | --- | --- |
|  |  |  |  |  |  | C1CCOCC1 [tetrahydropyran] + Cc1cccnc1 | 879.136 ± 0.91 kg/m3 | 1269.9 ± 2 m/s | 873.992 ± 0.9 kg/m3 | 1246.8 ± 2 m/s | 868.831 ± 0.89 kg/m3 | 1224.5 ± 2 m/s |
| 1424 ± 2 m/s | 952.002 ± 1 kg/m3 | 1404 ± 2 m/s | 947.449 ± 1 kg/m3 | 1384 ± 2 m/s | 942.831 ± 0.99 kg/m3 | Cc1cccnc1 [3-methylpyridine] |  |  |  |  |  |  |
| 1431.5 ± 1 m/s | 950.179 ± 0.3 kg/m3 | 1410.7 ± 1 m/s | 945.413 ± 0.3 kg/m3 | 1389.9 ± 1 m/s | 940.821 ± 0.3 kg/m3 | Cc1ccncc1 [4-methylpyridine] |  |  |  |  |  |  |
|  |  |  |  |  |  | C1CCOCC1 [tetrahydropyran] + c1ccncc1 | 879.136 ± 0.91 kg/m3 | 1269.9 ± 2 m/s | 873.992 ± 0.9 kg/m3 | 1246.8 ± 2 m/s | 868.831 ± 0.89 kg/m3 | 1224.5 ± 2 m/s |
|  |  |  |  |  |  | C1CCOCC1 [tetrahydropyran] + Cc1ccncc1 | 879.136 ± 0.91 kg/m3 | 1269.9 ± 2 m/s | 873.992 ± 0.9 kg/m3 | 1246.8 ± 2 m/s | 868.831 ± 0.89 kg/m3 | 1224.5 ± 2 m/s |
| 1380.1 ± 2 m/s | 939.802 ± 0.99 kg/m3 | 1361 ± 2 m/s | 935.117 ± 0.98 kg/m3 | 1339.9 ± 2 m/s | 930.414 ± 0.98 kg/m3 | Cc1ccccn1 [2-methylpyridine] |  |  |  |  |  |  |
|  |  |  |  |  |  | C1CCOCC1 [tetrahydropyran] + Cc1ccccn1 | 879.136 ± 0.91 kg/m3 | 1269.9 ± 2 m/s | 873.992 ± 0.9 kg/m3 | 1246.8 ± 2 m/s | 868.831 ± 0.89 kg/m3 | 1224.5 ± 2 m/s |

| Structure (SMILES) | speed of sound ([2]; 298.15 K) | mass density ([2]; 298.15 K) | speed of sound ([2]; 303.15 K) | mass density ([2]; 303.15 K) | speed of sound ([2]; 308.15 K) | mass density ([2]; 308.15 K) | mass density ([1]; 298.15 K) | speed of sound ([1]; 298.15 K) | mass density ([1]; 303.15 K) | speed of sound ([1]; 303.15 K) | mass density ([1]; 308.15 K) | speed of sound ([1]; 308.15 K) |
| --- | --- | --- | --- | --- | --- | --- | --- | --- | --- | --- | --- | --- |
| c1ccncc1 [pyridine] | 1417.6 ± 1.1 m/s | 978.249 ± 0.3 kg/m3 | 1397.4 ± 1.1 m/s | 973.224 ± 0.3 kg/m3 | 1377.1 ± 1.1 m/s | 968.166 ± 0.3 kg/m3 |  |  |  |  |  |  |
| C1CCOCC1 [tetrahydropyran] | 1269.9 ± 2 m/s | 879.136 ± 0.91 kg/m3 | 1246.8 ± 2 m/s | 873.992 ± 0.9 kg/m3 | 1224.5 ± 2 m/s | 868.831 ± 0.89 kg/m3 |  |  |  |  |  |  |
